# Laboratory results: patent publication US7575882B2, “Compositions and methods for identifying modulators of TRPV2” (Janssen Pharmaceutica N. V., priority 2005, dated 2009)
# Values joined by “and” are separate entries in the source; they are usually repeats but may differ in a detail not shown here. Identical values can stand only once.
# Biological target: T1, rat TRPV2 (Rattus norvegicus, UniProt Q9WUD2, A713V/L151P/T158I)
# T1 construct: A cDNA fragment encoding the full-length rat TRPV2 was subcloned into pCI-neo; expressed in transfected cells
# T1 sequence (Q9WUD2 1-761 L151P/T158I/A713V): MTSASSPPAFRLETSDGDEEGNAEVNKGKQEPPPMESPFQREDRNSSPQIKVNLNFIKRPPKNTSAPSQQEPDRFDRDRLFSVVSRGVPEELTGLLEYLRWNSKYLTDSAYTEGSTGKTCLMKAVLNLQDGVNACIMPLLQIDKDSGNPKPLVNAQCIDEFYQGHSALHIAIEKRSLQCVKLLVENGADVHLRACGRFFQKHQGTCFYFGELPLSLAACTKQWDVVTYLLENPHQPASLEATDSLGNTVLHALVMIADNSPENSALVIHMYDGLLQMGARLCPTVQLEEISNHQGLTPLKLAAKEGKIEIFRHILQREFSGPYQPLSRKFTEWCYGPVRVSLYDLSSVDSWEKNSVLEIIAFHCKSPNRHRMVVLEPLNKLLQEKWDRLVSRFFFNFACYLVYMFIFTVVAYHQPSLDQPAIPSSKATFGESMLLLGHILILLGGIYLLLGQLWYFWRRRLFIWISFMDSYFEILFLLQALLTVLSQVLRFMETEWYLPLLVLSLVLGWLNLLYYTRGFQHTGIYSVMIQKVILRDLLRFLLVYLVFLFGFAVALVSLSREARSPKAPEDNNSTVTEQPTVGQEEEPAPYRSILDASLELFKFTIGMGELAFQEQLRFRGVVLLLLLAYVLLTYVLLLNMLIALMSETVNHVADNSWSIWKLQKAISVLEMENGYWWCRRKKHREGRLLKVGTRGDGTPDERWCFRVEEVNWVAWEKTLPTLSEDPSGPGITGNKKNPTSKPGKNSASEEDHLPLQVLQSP
# Assay: FLIPR calcium mobilization assay in rat TRPV2-expressing HEK293 cells
# Format: cell-based
# Experimental: A cDNA fragment encoding the full-length rat TRPV2 was subcloned into pCI-neo (Promega, Madison, Wis.) mammalian expression vector. The expression construct was then transfected into HEK293 cells with FuGene6 transfection reagent (Roche, Indianapolis, Ind.) according to the vendor's protocol. Stable cell lines were selected by growth in the presence of 400 μg/ml G418. Single G418 resistant clones were isolated and purified.
# The rat TRPV2-expressing HEK293 cells were seeded in a 384-well plate at a concentration of 5×10^3 cells/well and incubated overnight at 37° C. The following day, the cells were loaded with buffer and calcium dye 3 (Molecular Devices, Sunnyvale, Calif.) in a final volume of 50 μl and incubated for 30 minutes at 37° C./5% CO2 followed by 30 additional minutes at room temperature. The fluorescence intensity was measured by a fluorescent plate reader (FLIPR) before, during and after the addition of test compounds.
# All data was normalized to that observed for 100 μM Δ^9-THC.
substance,measurement,setting,value
Delta-9-tetrahydrocannabinol [Δ^9-THC],elevation of intracellular Ca2+ in rat TRPV2-expressing HEK293 cells,100 μM,robust elevation of intracellular Ca^2+
same,% Response (activation of rat TRPV2),"100 μM compound (anandamide 120 μM), normalized to 100 μM Δ^9-THC",100%
same,Hill slope of rat TRPV2 activation,"FLIPR concentration-response, FIG. 4B",1.04
same,EC50,"FLIPR, rat TRPV2-expressing HEK293 cells, read-out: EC50 (activation of rat TRPV2)",15.7 µM and 15.5 µM
